Test results as given in patent publication US10308595B2, “Albicidin derivatives, their use and synthesis” (priority 2013, dated 2019).

Tested on: Escherichia coli strains expressing albicidin resistance determinants (DH5aAlbr, albD, alb14, alb19, sbmC)
Experiment: Microbiological assay (Zhang et al.) for cross-resistance
Type: cell-based
Details: synthetic versus natural albicidin, FIG. 11
Text: The microbiological assay described by Zhang et al., (J Appl Microbiol., 1998, 85, 1023-8) was used to study cross-resistance between synthetic albicidin (10) and the natural product albicidin purified from albicidin heterologous host developed by Vivien et al. (Antimicrob Agents Chemother., 2007, 51, 1549-52). Several Escherichia coli strains expressing a wide range of albicidin resistance determinants were used for this microbiological bioassay: strain DH5aAlbr (a spontaneous albicidin-resistant DH5a derivative; Rott et al., (J. Bacteriol., 1996, 178, 4590-4596.) and strains harboring albD (an albicidin-detoxifying gene, Zhang and Birch (Proc. Natl. Acad. Sci. USA, 1997, 94, 9984-9989.), alb14 (an albicidin efflux pump gene conferring albicidin resistance in E. coli, Bostock et al., (J. Appl. Microbiol., 2006, 101, 151-160.), alb19 (a McbG gene conferring albicidin resistance in E. coli, Hashimi et al. (Antimicrob. Agents Chemother., 2007, 51, 181-187.), or sbmC (a microcin B17 resistance gene, Baquero et al. (Mol. Microbiol., 1995, 18, 301-311.).

**Q.** For `COc1c(NC(=O)c2ccc(NC(=O)c3ccc(NC(=O)[C@H](CC#N)NC(=O)c4ccc(NC(=O)/C(C)=C/c5ccc(O)cc5)cc4)cc3)c(OC)c2O)ccc(C(=O)O)c1O` [synthetic albicidin (10), (S,E)-4-(4-(4-(3-cyano-2-(4-(3-(4-hydroxyphenyl)-2-methylacrylamido)benzamido)propanamido)benzamido)-2-hydroxy-3-methoxybenzamido)-2-hydroxy-3-methoxybenzoic acid], which “resistance pattern (cross-resistance) in albicidin-resistant E. coli strains” value is on record?
**A.** The value was “exactly the same”.
